# Assays:
# V-ATPase [1] = biological target: T1, V-ATPase (Bos taurus, UniProt P31404+P31408); assay: Transmembrane potential generated (oxonol-V fluorescence quenching) in chromaffin granules; assay type: biochemical, cattle; conditions: role: substrate; addition of ATP, relative to before addition, N=2
# T1 construct: Chromaffin granule membranes were prepared from adrenal glands collected from slaughtered cattle; from tissue; host or cells: cattle adrenal glands, chromaffin granule membranes (sucrose density gradient)
# T1 sequence (P31404 whole entry, looked up): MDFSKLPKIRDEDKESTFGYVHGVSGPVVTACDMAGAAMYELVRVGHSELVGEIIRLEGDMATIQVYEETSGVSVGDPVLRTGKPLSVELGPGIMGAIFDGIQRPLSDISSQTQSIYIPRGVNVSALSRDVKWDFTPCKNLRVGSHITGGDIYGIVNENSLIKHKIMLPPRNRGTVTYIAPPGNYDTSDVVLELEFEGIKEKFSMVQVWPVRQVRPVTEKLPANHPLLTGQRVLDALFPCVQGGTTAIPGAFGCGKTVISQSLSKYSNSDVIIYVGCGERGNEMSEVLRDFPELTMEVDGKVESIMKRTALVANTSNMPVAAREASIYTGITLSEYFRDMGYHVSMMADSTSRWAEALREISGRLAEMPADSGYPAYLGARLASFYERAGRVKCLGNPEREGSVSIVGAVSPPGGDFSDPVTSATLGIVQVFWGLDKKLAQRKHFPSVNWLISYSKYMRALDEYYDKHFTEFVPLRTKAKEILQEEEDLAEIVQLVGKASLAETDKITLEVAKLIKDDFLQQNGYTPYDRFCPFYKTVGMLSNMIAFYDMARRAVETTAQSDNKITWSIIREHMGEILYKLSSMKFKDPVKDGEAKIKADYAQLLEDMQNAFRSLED
# T1 sequence (P31408 whole entry, looked up): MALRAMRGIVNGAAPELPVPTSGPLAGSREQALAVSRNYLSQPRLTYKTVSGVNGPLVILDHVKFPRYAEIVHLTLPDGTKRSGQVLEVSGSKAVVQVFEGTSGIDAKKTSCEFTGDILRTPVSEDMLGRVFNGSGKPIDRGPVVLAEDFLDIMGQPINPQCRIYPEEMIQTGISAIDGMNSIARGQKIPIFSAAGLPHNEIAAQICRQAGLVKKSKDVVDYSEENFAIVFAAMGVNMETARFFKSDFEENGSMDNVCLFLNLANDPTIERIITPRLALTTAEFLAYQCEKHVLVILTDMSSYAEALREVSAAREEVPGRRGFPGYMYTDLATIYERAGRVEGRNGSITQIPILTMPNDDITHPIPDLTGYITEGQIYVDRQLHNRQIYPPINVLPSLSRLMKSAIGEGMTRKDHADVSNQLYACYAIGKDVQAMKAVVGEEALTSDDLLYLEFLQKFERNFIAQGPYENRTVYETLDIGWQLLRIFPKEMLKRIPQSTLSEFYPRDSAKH
# Procedure: (§1) Chromaffin granule membranes were prepared from adrenal glands collected from slaughtered cattle according to Reference A (Nathan Nelson et al., 1988, Chromaffin Granule Proton Pump, Methods in Enzymology, 157, 619-633). Chromaffin granule membranes prepared by sucrose density gradient centrifugation were suspended in 2 ml of SME buffer (20 mM MOPS-tris (pH 7.0), 0.3 M sucrose, 5 mM EDTA, 10 μg/ml leupeptin, and 10 μg/ml pepstatin)+25% glycerol, and the resulting suspension was aliquoted and stored at −80° C. Under these conditions, the ATP transport activity, the V-ATPase activity, and the catecholamine transport activity remain fully active for at least one year.
# ATP-dependent proton transport by V-ATPase was measured according to Reference B. Proton transport activity was measured using a spectrofluorometer at excitation wavelength of 492 nm and a fluorescence wavelength 540 nm, wherein fluorescence quenching of acridine orange was used as an index (N=2). The transmembrane potential generated was measured using a spectrofluorometer at an excitation wavelength of 580 nm and a fluorescence wavelength of 630 nm, wherein fluorescence quenching of oxonol-V was used as an index (N=2). […]
# V-ATPase [2] = biological target: T1, V-ATPase; assay: ATP-dependent proton transport by V-ATPase (acridine orange fluorescence quenching); assay type: biochemical, cattle; conditions: role: substrate; addition of ATP, relative to before addition, N=2
# Procedure: as §1
# ATP-dependent proton transport by V-ATPase was measured according to Reference B. Proton transport activity was measured using a spectrofluorometer at excitation wavelength of 492 nm and a fluorescence wavelength 540 nm, wherein fluorescence quenching of acridine orange was used as an index (N=2). The transmembrane potential generated was measured using a spectrofluorometer at an excitation wavelength of 580 nm and a fluorescence wavelength of 630 nm, wherein fluorescence quenching of oxonol-V was used as an index (N=2). The acridine measurement liquid (2 ml) contained 20 mM MOPS-tris (pH 7.0), 0.2 M sucrose, 0.1 M potassium chloride, 5 mM magnesium acetate, 0.2 μg valinomycin, 2 μM acridine orange, and about 20 μg of chromaffin granules. The oxonol-V measurement liquid (2 ml) contained 20 mM MOPS-tris (pH 7.0), 0.3 M sucrose, 5 mM magnesium acetate, 5 μM oxonol-V, and about 20 μg of chromaffin granules.
# (§2) Chromaffin granule membrane vesicles were prepared in the same manner as in Example 5, and uptake of radiolabeled ATP into the vesicles was measured. Transport activity of catecholamine (dopamine) and ATP-dependent proton transport by V-ATPase were also measured in the same manner as in Example 5.
# [3] = system: α-SMA-positive cells (stellate cells) in mouse liver; assay: TAA-induced activation of HSCs in mice: α-SMA immunostaining of liver sections; assay type: in vivo
# Text: (§3) For immunohistochemical analysis, liver samples were fixed in 4% paraformaldehyde, embedded in paraffin, and then sectioned. The sections were stained with HE or PSR. In addition, the paraffin-embedded sections were subjected to immunostaining using an α-SMA monoclonal antibody (1:500, catalog No. A5228, manufactured by Sigma-Aldrich) and an F4/80 monoclonal antibody (1:200, catalog No. MCA497GA, manufactured by AbD Serotec). The cell specimens were observed using a microscope (BZ-X700 series, manufactured by Keyence) or a confocal laser microscope (FV1000, manufactured by Olympus Corporation). The number of F4/80-positive cells was counted in four high-power fields per section. The α-SMA-positive area and the PSR-positive area were quantified using the image analysis software Fiji-ImageJ (1.54f).
# In accordance with Example 15, immunostaining of α-SMA in liver sections and observation by fluorescence microscopy were performed for the normal control group, the TAA group, and the TAA+IMG group, and for a TAA+Clo group, which was treated in the same manner as the TAA+IMG group except that clodronate, instead of imeglimin, was administered at 30 mg/kg by blending it in the drinking water from 1 week after the start of TAA administration.
# mouse liver = assay: Thioacetamide-induced hepatic fibrosis in mice: histology, immunostaining and fibrosis score; assay type: in vivo; conditions: TAA 50 mg/kg i.p. three times per week
# Procedure: Wild-type mice, […] (manufactured by Charles River Japan), were housed on a 12-hour light/dark cycle and fed a standard solid diet (5.4% fat, CRF-1, manufactured by Oriental Yeast Co., Ltd.) ad libitum. Thioacetamide (TAA, manufactured by FUJIFILM Wako Pure Chemical Corporation) was dissolved in physiological saline at 0.9% w/v. Eight-week-old mice were randomly assigned to three groups and continuously treated for 9 weeks according to the following scheme. At Week 9, all mice were euthanized 1 hour after administration of physiological saline or IMG.
# Normal control group (N=6): Physiological saline was intraperitoneally administered to mice three times per week. Eight hours after each administration, a vehicle was orally administered to the mice.
# TAA group (N=6): TAA (50 mg/kg, intraperitoneal) was administered to mice. Eight hours thereafter, physiological saline was orally administered to the mice. This treatment was performed three times per week for a total of 9 weeks.
# TAA+IMG group (N=6): During the first week, physiological saline was orally administered to mice. Thereafter, imeglimin (IMG) at 200 mg/kg was orally administered three times per week for 8 weeks. The administration of IMG was performed 8 hours after intraperitoneal administration of TAA (50 mg/kg).
# as §3
# A histological score was determined by a blinded investigator using the NAFLD histological scoring system of the Nonalcoholic Steatohepatitis Clinical Research Network. The total NAFLD activity score (NAS) was calculated from the total of the individual scores for steatosis ([…]), lobular inflammation (F4/80), and hepatocyte ballooning. The range of each parameter was 0 to 2 (ballooning) or 3 (the other two scores), where 0 indicates normal and 2 or 3 indicates severe. Staging of fibrosis was based on the NASH fibrosis stages, and a fibrosis stage ranging from 0 to 4 was determined according to Reference H (David E. Kleiner et al., 2005, Design and validation of a histological scoring system for nonalcoholic fatty liver disease, Hepatology, 41, 1313-1321).
# All results are expressed as the mean±standard error of the mean (S.E.M.). Statistical analyses were performed using GraphPad Prism 7.0 (GraphPad Software). Significance upon comparison between two groups was evaluated by an unpaired two-tailed Student's t-test. […]. Statistical significance among three or more groups was determined by two-way analysis of variance (ANOVA) with Tukey's or Dunnett's post hoc test. Coloc2 was used to perform image analysis, automatic thresholding, and pixel intensity correlation for statistical processing. Statistical significance was assumed when the P value was <0.05.
# keratinocytes = assay: Imiquimod-induced ATP secretion in keratinocytes; assay type: cell-based, human; conditions: imiquimod 1 μg/ml or 0.5 μg/ml, 15 minutes, N=8 (FIG. 32)
# Procedure: In the same manner as in Example 1, keratinocytes were cultured at 2.5×10^4 cells/well in a 24-well plate at 37° C. in 5% CO2 for 4 days. The medium was replaced with HBSS (manufactured by Gibco) supplemented with 1 μM or 10 μM imeglimin, and incubation was performed at 37° C. in 5% CO2 for 18 hours. Thereafter, imiquimod was added thereto at 1 μg/ml or 0.5 μg/ml, and incubation was performed for 15 minutes, followed by collection of 200 μl of the supernatant. The supernatant was immediately treated on a heat block at 95° C. for 10 minutes, and ATP in the supernatant was quantified using a ATP Assay Kit—Luminescence (manufactured by Dojindo) (N=8).
# mouse auricle [4] = assay: Imiquimod-induced psoriasis relapse model (Example 20); assay type: in vivo; conditions: 5% imiquimod cream resumed on Day 23, vs first induction
# Procedure: To the left auricle of each mouse, 62.5 mg of 5% imiquimod cream (Beselna Cream 5%) was applied once daily a total of seven times (Days 1 to 7) in accordance with Example 19 to induce imiquimod-induced psoriasis. Thereafter, the imiquimod treatment was interrupted, and imeglimin (40 mg/kg) was orally administered on alternate days for 2 weeks (Day 8 to 22) (IMG). Mice without administration of imeglimin were designated IMQ. On Day 23, the imiquimod treatment was resumed, and 62.5 mg of 5% imiquimod cream (Beselna Cream 5%) was applied once daily a total of […]. In parallel, imeglimin (40 mg/kg) was orally administered daily to IMG.
# mouse auricle [5] = assay: Imiquimod-induced psoriasis model, oral imeglimin (Example 18); assay type: in vivo; conditions: 62.5 mg of 5% imiquimod cream daily, Days 1 to 7 (disease inducer)
# Procedure: Experimental psoriatic symptoms were induced in a mouse auricle by imiquimod. Six-week-old male C57BL/6 mice (N=5) were acclimated for one week. On Days 1 to 7, 62.5 mg of 5% imiquimod cream (Beselna Cream 5%) (3.125 mg in terms of the active ingredient, manufactured by Mochida Pharmaceutical Co. Ltd.) was applied to the right auricle of the mice for 7 consecutive days (IMQ group). Once daily after the imiquimod application, the imeglimin administration group (IMQ+IMG group) received oral administration, at 40 mg/kg, of 500-mg Twymeeg (trademark) tablets (manufactured by Sumitomo Pharma Co. Ltd.) dissolved in physiological saline. The control group received an equal volume of physiological saline. On Day 8, the mice were euthanized by cervical dislocation, and auricle thickness was measured using a dial thickness gauge (manufactured by Adachi Sogyo Co., Ltd.).
# Each excised mouse auricle was fixed in 4% paraformaldehyde at 4° C. overnight. After ethanol substitution, the auricle was embedded in paraffin, sectioned using a rotary microtome Leica RM2165 (thickness, […]), and subjected to HE staining or immunohistochemical staining. For the immunohistochemical staining, the sections were deparaffinized, washed in xylene, and rehydrated through graded alcohols. The sections were incubated in DAKO at 95° C. for 30 minutes. The sections were blocked at room temperature for 60 minutes and then incubated at room temperature for 2 hours to allow reaction with a TGM1 anti-rabbit polyclonal antibody (catalog number 12912-3-AP, manufactured by Proteintech). The sample was washed and then allowed to react with a secondary antibody (Alexa 544-conjugated secondary antibody (goat anti-rabbit IgG) (manufactured by Molecular Probes)) at room temperature for 60 minutes. After allowing reaction with DAPI at room temperature for 10 minutes, the sections were mounted with Fluoromount and imaged using a fluorescence microscope (BZ-X710, manufactured by Keyence).
# [6] = system: catecholamine transport of chromaffin granule membranes; assay: Catecholamine (dopamine) transport in chromaffin granule membranes; assay type: biochemical, cattle; conditions: role: inhibitor; 1 μM reserpine
# Procedure: as §1
# A catecholamine transport inhibition experiment was carried out in the same manner as the ATP transport experiment except that the experiment used a measurement liquid containing 20 mM MOPS-tris (pH 7.0), 0.1 M sucrose, 0.1 M potassium chloride, 5 mM magnesium acetate, and about 5 μg of chromaffin granule membranes. To 0.5 ml of the measurement liquid, 2 mM ATP was added, and the resulting mixture was incubated at 30° C. for about 5 minutes, followed by addition of 3[H]-dopamine thereto to a final concentration of 10 μM. After further incubation at 30° C. for 15 minutes, 0.2 ml of the reaction liquid was subjected to suction filtration through a Millipore MCE membrane filter with a pore size of 0.45 μm, and the radioactivity on the filter was measured (N=3). The substrate, 3[H]-dopamine, was prepared by mixing 3,4-[RING-2,5,6-^3H]dihydroxyphenylethylamine (dopamine) (30 Ci/mmol) (manufactured by New England Nuclear) with dopamine hydrochloride (manufactured by LKT Laboratories) such that a final concentration of […] was achieved during the use.
# as §2
smiles,measurement,setting,value
"Nc1ncnc2c1ncn2[C@@H]1O[C@H](COP(=O)(O)OP(=O)(O)OP(=O)(O)O)[C@@H](O)[C@H]1O [ATP, adenosine triphosphate]",quenching of oxonol-V fluorescence,V-ATPase [1],40%
same,quenching of acridine orange fluorescence,V-ATPase [2],62%
"CC(=N)S [TAA, Thioacetamide]",α-SMA-positive reaction throughout the mouse liver,[3]; TAA 50 mg/kg i.p. (FIG. 29),increased markedly
same,α-SMA-positive area fraction,"[3]; TAA group (disease inducer, 50 mg/kg i.p.), four measurements, normal control 0.14±0.01",2.79±0.33
same,reaction of F4/80-positive macrophages,mouse liver; 9 weeks (disease inducer),markedly increased
same,α-SMA-positive reaction,mouse liver; 9 weeks (disease inducer),markedly increased
same,HE-stained liver tissue,"mouse liver; 9 weeks, vs normal control","destruction of the lobular structure, hepatocyte ballooning, and inflammatory cell infiltration"
same,fibrosis score,"mouse liver; 9 weeks, vs normal control (FIG. 28)",markedly increased
CC(C)Cn1cnc2c(N)nc3ccccc3c21 [imiquimod],ATP secretion from the keratinocytes,keratinocytes,markedly promoted
same,psoriatic symptoms on resumed treatment,mouse auricle [4],induced more rapidly and more strongly than at the first induction
same,auricle thickening,mouse auricle [5],auricle thickening induced
same,psoriatic symptoms in the epidermis,mouse auricle [5],"caused psoriatic symptoms in the epidermis, leading to partial desquamation"
COC(=O)[C@H]1[C@H]2C[C@@H]3c4[nH]c5cc(OC)ccc5c4CCN3C[C@H]2C[C@@H](OC(=O)c2cc(OC)c(OC)c(OC)c2)[C@@H]1OC [reserpine],ATP-dependent dopamine transport,[6],almost completely blocked

# — patent US20260306500A1, “METHOD OF INHIBITING ADENOSINE TRIPHOSPHATE SECRETION, METHOD OF INHIBITING HEPATIC STELLATE CELL ACTIVATION, METHOD OF DEACTIVATING HEPATIC STELLATE CELL, METHOD OF TREATING HEPATIC FIBROSIS, METHOD OF TREATING NON-ALCOHOLIC STEATOHEPATITIS, AND METHOD OF TREATING PSORIASIS” (Kurume University, priority 2023, published 2026)
